In brackets after ≈: the same amount, converted by molar mass. Read-outs that look alike come from different tables or passages of the source. Positions of bridges follow the written chain, without caps; N, C: chain ends. Non-standard residues stand in square brackets, D forms with d. Residues, ends and D or L forms follow the SMILES beside them. *: point of attachment. Lauroyl = CCCCCCCCCCCC(=O)*; Dab = NCC[C@H](N)C(=O)O; Butyryl = CCCC(=O)*
How the values were obtained:
[1] = test system: P. aeruginosa PAO1; parameters: MICDrug / MICDrug in combo / MIC of adjuvant in combo: unit not given beside the values; settings: for MIC of adjuvant alone (MIC1, MIC2, MIC3, MIC4, MIC5, MICPMBN): one value per checkerboard, in µg/mL
[2] = test system: P. aeruginosa CANWARD-2011 96846; format: cell-based, Pseudomonas aeruginosa
Procedure, shortened: (§1)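 Overnight cultures were standardized to 0.5 McFarland, diluted 1:50 into Mueller-Hinton broth for a final inoculum near 5×10^5 CFU/mL, then mixed with two-fold serially diluted compound. Plates were incubated 18 h at 37° C. following CLSI guidelines.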

[3] = test system: pig erythrocytes; settings: red cells of pig, 1 h, 512
[4] = test system: E. coli CANWARD-2011 97615; format: cell-based, Escherichia coli
Procedure, shortened: as §1

[5] = combination with Chloramphenicol
[6] = in combination with Ceftazidime
[7] = in combination with Chloramphenicol
[8] = in combination with Ciprofloxacin
[9] = in combination with Clindamycin
[10] = in combination with Doxycycline
[11] = in combination with Minocycline
[12] = in combination with Moxifloxacin
[13] = in combination with Piperacillin
[14] = in combination with Pleuromutilin
[15] = in combination with Streptomycin
[16] = in combination with Trimethoprim

Structure (SMILES): CCCCCCCCCCCC(=O)NCC[C@H](NC(=O)CCCCCCCCCCC)C(=O)N[C@H](C(=O)N[C@@H](CCN)C(=O)N[C@H]1CCNC(=O)[C@H]([C@@H](C)O)NC(=O)[C@H](CCN)NC(=O)[C@H](CCN)NC(=O)[C@H](CC(C)C)NC(=O)[C@@H](Cc2ccccc2)NC(=O)[C@H](CCN)NC1=O)[C@@H](C)O [Compound 3, Didodecanoic Acid (Di-C12) Polymyxin] (Lauroyl-[Dab](Lauroyl)T[Dab][Dab][Dab][dF]L[Dab][Dab]T; lactam 4-C)
- MIC of adjuvant alone (MIC1, MIC2, MIC3, MIC4, MIC5, MICPMBN) [1]: 32
- Interpretation ([1]; combination with Aztreonam): Additive (An FIC index of ≤0.5, 0.5<x≤4, or >4 denotes for synergistic, additive or antagonistic interaction, respectively)
- Interpretation ([1]; combination with Ceftazidime): Additive (An FIC index of ≤0.5, 0.5<x≤4, or >4 denotes for synergistic, additive or antagonistic interaction, respectively)
- Interpretation [1, 5]: Additive (An FIC index of ≤0.5, 0.5<x≤4, or >4 denotes for synergistic, additive or antagonistic interaction, respectively)
- Interpretation ([1]; combination with Ciprofloxacin): Additive (An FIC index of ≤0.5, 0.5<x≤4, or >4 denotes for synergistic, additive or antagonistic interaction, respectively)
- Interpretation ([1]; combination with Clindamycin): Additive (An FIC index of ≤0.5, 0.5<x≤4, or >4 denotes for synergistic, additive or antagonistic interaction, respectively)
- Interpretation ([1]; combination with Doripenem): Additive (An FIC index of ≤0.5, 0.5<x≤4, or >4 denotes for synergistic, additive or antagonistic interaction, respectively)
- Interpretation ([1]; combination with Doxycycline): Additive (An FIC index of ≤0.5, 0.5<x≤4, or >4 denotes for synergistic, additive or antagonistic interaction, respectively)
- Interpretation ([1]; combination with Fosfomycin): Additive (An FIC index of ≤0.5, 0.5<x≤4, or >4 denotes for synergistic, additive or antagonistic interaction, respectively)
- Interpretation ([1]; combination with Gentamicin): Additive (An FIC index of ≤0.5, 0.5<x≤4, or >4 denotes for synergistic, additive or antagonistic interaction, respectively)
- Interpretation ([1]; combination with Linezolid): Additive (An FIC index of ≤0.5, 0.5<x≤4, or >4 denotes for synergistic, additive or antagonistic interaction, respectively)
- Interpretation ([1]; combination with Meropenem): Additive (An FIC index of ≤0.5, 0.5<x≤4, or >4 denotes for synergistic, additive or antagonistic interaction, respectively)
- Interpretation ([1]; combination with Minocycline): Additive (An FIC index of ≤0.5, 0.5<x≤4, or >4 denotes for synergistic, additive or antagonistic interaction, respectively)
- Interpretation ([1]; combination with Moxifloxacin): Additive (An FIC index of ≤0.5, 0.5<x≤4, or >4 denotes for synergistic, additive or antagonistic interaction, respectively)
- Interpretation ([1]; combination with Novobiocin): Additive (An FIC index of ≤0.5, 0.5<x≤4, or >4 denotes for synergistic, additive or antagonistic interaction, respectively)
- Interpretation ([1]; combination with Piperacillin): Additive (An FIC index of ≤0.5, 0.5<x≤4, or >4 denotes for synergistic, additive or antagonistic interaction, respectively)
- Interpretation ([1]; combination with Pleuromutilin): Additive (An FIC index of ≤0.5, 0.5<x≤4, or >4 denotes for synergistic, additive or antagonistic interaction, respectively)
- Interpretation ([1]; combination with Rifampicin): Additive (An FIC index of ≤0.5, 0.5<x≤4, or >4 denotes for synergistic, additive or antagonistic interaction, respectively)
- Interpretation ([1]; combination with Streptomycin): Additive (An FIC index of ≤0.5, 0.5<x≤4, or >4 denotes for synergistic, additive or antagonistic interaction, respectively)
- Interpretation ([1]; combination with Tobramycin): Additive (An FIC index of ≤0.5, 0.5<x≤4, or >4 denotes for synergistic, additive or antagonistic interaction, respectively)
- Interpretation ([1]; combination with Trimethoprim): Additive (An FIC index of ≤0.5, 0.5<x≤4, or >4 denotes for synergistic, additive or antagonistic interaction, respectively)
- Interpretation ([1]; combination with Vancomycin): Additive (An FIC index of ≤0.5, 0.5<x≤4, or >4 denotes for synergistic, additive or antagonistic interaction, respectively)
- MIC of adjuvant in combo ([1]; in combination with Aztreonam): (16)
- MIC of adjuvant in combo [1, 6]: (16)
- MIC of adjuvant in combo [1, 7]: (16)
- MIC of adjuvant in combo [1, 8]: (0.25)
- MIC of adjuvant in combo [1, 9]: (16)
- MIC of adjuvant in combo ([1]; in combination with Doripenem): (16)
- MIC of adjuvant in combo [1, 10]: (16)
- MIC of adjuvant in combo ([1]; in combination with Fosfomycin): (8)
- MIC of adjuvant in combo ([1]; in combination with Gentamicin): (0.25)
- MIC of adjuvant in combo ([1]; in combination with Linezolid): (32)
- MIC of adjuvant in combo ([1]; in combination with Meropenem): (16)
- MIC of adjuvant in combo [1, 11]: (16)
- MIC of adjuvant in combo [1, 12]: (16)
- MIC of adjuvant in combo ([1]; in combination with Novobiocin): (16)
- MIC of adjuvant in combo [1, 13]: (16)
- MIC of adjuvant in combo [1, 14]: (16)
- MIC of adjuvant in combo ([1]; in combination with Rifampicin): (8)
- MIC of adjuvant in combo [1, 15]: (0.25)
- MIC of adjuvant in combo ([1]; in combination with Tobramycin): (0.25)
- MIC of adjuvant in combo [1, 16]: (16)
- MIC of adjuvant in combo ([1]; in combination with Vancomycin): (16)
- adjuvant activity (potentiation of the panel of 21 antibiotics) ([1]; result in words): did not enhance the activity of any antibiotics
- MIC [2]: >128 µg/mL
- % Hemolysis at 512 μg/mL of polymyxin [3]: 49.7 ± 3.3%
- MIC [4]: 64 µg/mL (≈ 44.8 µM)

Structure (SMILES): CCCC(=O)NCC[C@H](NC(=O)CCC)C(=O)N[C@H](C(=O)N[C@@H](CCN)C(=O)N[C@H]1CCNC(=O)[C@H]([C@@H](C)O)NC(=O)[C@H](CCN)NC(=O)[C@H](CCN)NC(=O)[C@H](CC(C)C)NC(=O)[C@@H](Cc2ccccc2)NC(=O)[C@H](CCN)NC1=O)[C@@H](C)O [Compound 1, Dibutyric Acid (Di-C4) Polymyxin] (Butyryl-[Dab](Butyryl)T[Dab][Dab][Dab][dF]L[Dab][Dab]T; lactam 4-C)
- MIC of adjuvant alone (MIC1, MIC2, MIC3, MIC4, MIC5, MICPMBN) [1]: 128
- Interpretation ([1]; combination with Aztreonam): Synergy (An FIC index of ≤0.5, 0.5<x≤4, or >4 denotes for synergistic, additive or antagonistic interaction, respectively)
- Interpretation ([1]; combination with Ceftazidime): Synergy (An FIC index of ≤0.5, 0.5<x≤4, or >4 denotes for synergistic, additive or antagonistic interaction, respectively)
- Interpretation [1, 5]: Synergy (An FIC index of ≤0.5, 0.5<x≤4, or >4 denotes for synergistic, additive or antagonistic interaction, respectively)
- Interpretation ([1]; combination with Ciprofloxacin): Synergy (An FIC index of ≤0.5, 0.5<x≤4, or >4 denotes for synergistic, additive or antagonistic interaction, respectively)
- Interpretation ([1]; combination with Clindamycin): Synergy (An FIC index of ≤0.5, 0.5<x≤4, or >4 denotes for synergistic, additive or antagonistic interaction, respectively)
- Interpretation ([1]; combination with Doripenem): Additive (An FIC index of ≤0.5, 0.5<x≤4, or >4 denotes for synergistic, additive or antagonistic interaction, respectively)
- Interpretation ([1]; combination with Doxycycline): Synergy (An FIC index of ≤0.5, 0.5<x≤4, or >4 denotes for synergistic, additive or antagonistic interaction, respectively)
- Interpretation ([1]; combination with Fosfomycin): Synergy (An FIC index of ≤0.5, 0.5<x≤4, or >4 denotes for synergistic, additive or antagonistic interaction, respectively)
- Interpretation ([1]; combination with Gentamicin): Additive (An FIC index of ≤0.5, 0.5<x≤4, or >4 denotes for synergistic, additive or antagonistic interaction, respectively)
- Interpretation ([1]; combination with Linezolid): Synergy (An FIC index of ≤0.5, 0.5<x≤4, or >4 denotes for synergistic, additive or antagonistic interaction, respectively)
- Interpretation ([1]; combination with Meropenem): Synergy (An FIC index of ≤0.5, 0.5<x≤4, or >4 denotes for synergistic, additive or antagonistic interaction, respectively)
- Interpretation ([1]; combination with Minocycline): Synergy (An FIC index of ≤0.5, 0.5<x≤4, or >4 denotes for synergistic, additive or antagonistic interaction, respectively)
- Interpretation ([1]; combination with Moxifloxacin): Synergy (An FIC index of ≤0.5, 0.5<x≤4, or >4 denotes for synergistic, additive or antagonistic interaction, respectively)
- Interpretation ([1]; combination with Novobiocin): Synergy (An FIC index of ≤0.5, 0.5<x≤4, or >4 denotes for synergistic, additive or antagonistic interaction, respectively)
- Interpretation ([1]; combination with Piperacillin): Additive (An FIC index of ≤0.5, 0.5<x≤4, or >4 denotes for synergistic, additive or antagonistic interaction, respectively)
- Interpretation ([1]; combination with Pleuromutilin): Synergy (An FIC index of ≤0.5, 0.5<x≤4, or >4 denotes for synergistic, additive or antagonistic interaction, respectively)
- Interpretation ([1]; combination with Rifampicin): Synergy (An FIC index of ≤0.5, 0.5<x≤4, or >4 denotes for synergistic, additive or antagonistic interaction, respectively)
- Interpretation ([1]; combination with Streptomycin): Additive (An FIC index of ≤0.5, 0.5<x≤4, or >4 denotes for synergistic, additive or antagonistic interaction, respectively)
- Interpretation ([1]; combination with Tobramycin): Additive (An FIC index of ≤0.5, 0.5<x≤4, or >4 denotes for synergistic, additive or antagonistic interaction, respectively)
- Interpretation ([1]; combination with Trimethoprim): Synergy (An FIC index of ≤0.5, 0.5<x≤4, or >4 denotes for synergistic, additive or antagonistic interaction, respectively)
- Interpretation ([1]; combination with Vancomycin): Synergy (An FIC index of ≤0.5, 0.5<x≤4, or >4 denotes for synergistic, additive or antagonistic interaction, respectively)
- MIC of adjuvant in combo ([1]; in combination with Aztreonam): (32)
- MIC of adjuvant in combo [1, 6]: (32)
- MIC of adjuvant in combo [1, 7]: (4)
- MIC of adjuvant in combo [1, 8]: (32)
- MIC of adjuvant in combo [1, 9]: (8)
- MIC of adjuvant in combo ([1]; in combination with Doripenem): (32)
- MIC of adjuvant in combo [1, 10]: (2)
- MIC of adjuvant in combo ([1]; in combination with Fosfomycin): (16)
- MIC of adjuvant in combo ([1]; in combination with Gentamicin): (0.0625)
- MIC of adjuvant in combo ([1]; in combination with Linezolid): (4)
- MIC of adjuvant in combo ([1]; in combination with Meropenem): (32)
- MIC of adjuvant in combo [1, 11]: (2)
- MIC of adjuvant in combo [1, 12]: (16)
- MIC of adjuvant in combo ([1]; in combination with Novobiocin): (8)
- MIC of adjuvant in combo [1, 13]: (32)
- MIC of adjuvant in combo [1, 14]: (8)
- MIC of adjuvant in combo ([1]; in combination with Rifampicin): (2)
- MIC of adjuvant in combo [1, 15]: (32)
- MIC of adjuvant in combo ([1]; in combination with Tobramycin): (0.5)
- MIC of adjuvant in combo [1, 16]: (16)
- MIC of adjuvant in combo ([1]; in combination with Vancomycin): (32)
- MIC [2]: >128 µg/mL
- % Hemolysis at 512 μg/mL of polymyxin [3]: 1.1 ± 1.6%
- MIC [4]: >128 µg/mL
